Reference: patent US12077503B2, “Substituted cyclic amides and their use as herbicides” (FMC CORPORATION, priority 2015, dated 2024)

Legend:
Format in all cases: in vivo
[1] = tested on: ducksalad (Heteranthera limosa); assay: Test B flooded paddy test; conditions: Flood, 0 to 100 scale where 0 is no effect and 100 is complete control, 13 to 15 d
Method in brief: (§1)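 Visual ratings (0 none to 100 complete control) are relative to untreated plants, taken 13–15 d after treatment in a greenhouse. Test material went straight into floodwater standing 3 cm above the soil, kept constant, on plants at the 2-leaf stage.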

[2] = tested on: rice (Oryra sativa); assay: Test B flooded paddy test; conditions: Flood, 0 to 100 scale where 0 is no effect and 100 is complete control, 13 to 15 d
Method in brief: as §1

[3] = tested on: barnyardgrass (Echinochloa crus-galli); assay: Test B flooded paddy test; conditions: Flood, 0 to 100 scale where 0 is no effect and 100 is complete control, 13 to 15 d
Method in brief: as §1

[4] = tested on: sedge, umbrella (small-flower umbrella sedge, Cyperus difformis); assay: Test B flooded paddy test; conditions: Flood, 0 to 100 scale where 0 is no effect and 100 is complete control, 13 to 15 d
Method in brief: as §1

[5] = tested on: Kochia (Kochia scoparia); assay: Test A postemergence; conditions: postemergence; for Kochia plant response rating: 125 g ai/ha, visual injury rating on 0 to 100 scale (0 no effect, 100 complete control), approx. 10 d; for Plant response rating, Kochia: 500 g ai/ha, 0 to 100 scale, 0 no effect, 100 complete control
Method in brief: (§2)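 Ratings of 0 (no effect) to 100 (complete control) come from visual comparison with untreated controls roughly 10 d after treatment. Test chemicals, formulated in a non-phytotoxic solvent mixture with surfactant, were applied either as a preemergence directed soil spray on seeded soil or postemergence to one- to two-leaf plants 2 to 10 cm tall.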

[6] = tested on: wheat (Triticum aestivum); assay: Test A postemergence; conditions: postemergence; for Wheat plant response rating: 125 g ai/ha, visual injury rating on 0 to 100 scale (0 no effect, 100 complete control), approx. 10 d; for Plant response rating, Wheat: 500 g ai/ha, 0 to 100 scale, 0 no effect, 100 complete control
Method in brief: as §2

[7] = tested on: Galium (catchweed bedstraw, Galium aparine); assay: Test A postemergence; conditions: postemergence; for Galium plant response rating: 125 g ai/ha, visual injury rating on 0 to 100 scale (0 no effect, 100 complete control), approx. 10 d; for Plant response rating, Galium: 500 g ai/ha, 0 to 100 scale, 0 no effect, 100 complete control
Method in brief: as §2

[8] = tested on: corn (Zea mays); assay: Test A postemergence; conditions: postemergence; for Corn plant response rating: 125 g ai/ha, visual injury rating on 0 to 100 scale (0 no effect, 100 complete control), approx. 10 d; for Plant response rating, Corn: 500 g ai/ha, 0 to 100 scale, 0 no effect, 100 complete control
Method in brief: as §2

[9] = tested on: blackgrass (Alopecurus myosuroides); assay: Test A postemergence
Method in brief: as §2

[10] = tested on: pigweed (Amaranthus retroflexus); assay: Test A postemergence; conditions: postemergence; for Pigweed plant response rating: 125 g ai/ha, visual injury rating on 0 to 100 scale (0 no effect, 100 complete control), approx. 10 d; for Plant response rating, Pigweed: 500 g ai/ha, 0 to 100 scale, 0 no effect, 100 complete control
Method in brief: as §2

[11] = tested on: ryegrass, Italian (Italian ryegrass, Lolium multiflorum); assay: Test A postemergence; conditions: postemergence; for Ryegrass, Italian plant response rating: 125 g ai/ha, visual injury rating on 0 to 100 scale (0 no effect, 100 complete control), approx. 10 d; for Plant response rating, Ryegrass, Italian: 500 g ai/ha, 0 to 100 scale, 0 no effect, 100 complete control
Method in brief: as §2

[12] = tested on: barnyardgrass (Echinochloa crus-galli); assay: Test A postemergence
Method in brief: as §2

[13] = tested on: giant foxtail (Setaria faberii); assay: Test A postemergence; conditions: postemergence; for Foxtail, Giant plant response rating: 125 g ai/ha, visual injury rating on 0 to 100 scale (0 no effect, 100 complete control), approx. 10 d; for Plant response rating, Foxtail, Giant: 500 g ai/ha, 0 to 100 scale, 0 no effect, 100 complete control
Method in brief: as §2

[14] = tested on: ragweed (common ragweed, Ambrosia elatior); assay: Test A postemergence; conditions: postemergence; for Ragweed plant response rating: 125 g ai/ha, visual injury rating on 0 to 100 scale (0 no effect, 100 complete control), approx. 10 d; for Plant response rating, Ragweed: 500 g ai/ha, 0 to 100 scale, 0 no effect, 100 complete control
Method in brief: as §2

[15] = tested on: Kochia (Kochia scoparia); assay: Test A preemergence; conditions: for Plant response rating, Kochia: 125 g ai/ha, preemergence, 0 to 100 scale (0 no effect, 100 complete control); for Kochia plant response rating (0 to 100 scale): Preemergence, 500 g ai/ha, 0 is no effect, 100 is complete control
Method in brief: as §2

[16] = tested on: pigweed (Amaranthus retroflexus); assay: Test A preemergence; conditions: for Plant response rating, Pigweed: 125 g ai/ha, preemergence, 0 to 100 scale (0 no effect, 100 complete control); for Pigweed plant response rating (0 to 100 scale): Preemergence, 500 g ai/ha, 0 is no effect, 100 is complete control
[17] = tested on: ryegrass, Italian (Italian ryegrass, Lolium multiflorum); assay: Test A preemergence; conditions: for Plant response rating, Ryegrass, Italian: 125 g ai/ha, preemergence, 0 to 100 scale (0 no effect, 100 complete control); for Ryegrass, Italian plant response rating (0 to 100 scale): Preemergence, 500 g ai/ha, 0 is no effect, 100 is complete control
Method in brief: as §2

[18] = tested on: barnyardgrass (Echinochloa crus-galli); assay: Test A preemergence; conditions: for Plant response rating, Barnyardgrass: 125 g ai/ha, preemergence, 0 to 100 scale (0 no effect, 100 complete control); for Barnyardgrass plant response rating (0 to 100 scale): Preemergence, 500 g ai/ha, 0 is no effect, 100 is complete control
Method in brief: as §2

[19] = tested on: giant foxtail (Setaria faberii); assay: Test A preemergence; conditions: for Plant response rating, Foxtail, Giant: 125 g ai/ha, preemergence, 0 to 100 scale (0 no effect, 100 complete control); for Foxtail, Giant plant response rating (0 to 100 scale): Preemergence, 500 g ai/ha, 0 is no effect, 100 is complete control
Method in brief: as §2

[20] = tested on: ragweed (common ragweed, Ambrosia elatior); assay: Test A preemergence; conditions: for Plant response rating, Ragweed: 125 g ai/ha, preemergence, 0 to 100 scale (0 no effect, 100 complete control); for Ragweed plant response rating (0 to 100 scale): Preemergence, 500 g ai/ha, 0 is no effect, 100 is complete control
Method in brief: as §2

[21] = 500 g ai/ha, postemergence, 0 to 100 scale, 0 no effect, 100 complete control
[22] = Postemergence, 125 g ai/ha, visual injury, 0 to 100 scale (0 no effect, 100 complete control), approx. 10 d

Structure (SMILES)	Kochia plant response rating [5]	Plant response rating, Kochia [5]	Wheat plant response rating [6]	Plant response rating, Wheat [6]	Galium plant response rating [7]	Plant response rating, Galium [7]	Corn plant response rating [8]	Plant response rating, Corn [8]	Plant response rating, Blackgrass [9, 21]	Plant response rating, Blackgrass [9, 22]	Pigweed plant response rating [10]	Plant response rating, Pigweed [10]	Ryegrass, Italian plant response rating [11]	Plant response rating, Ryegrass, Italian [11]	Plant response rating, Barnyardgrass [12, 21]	Plant response rating, Barnyardgrass [12, 22]	Foxtail, Giant plant response rating [13]	Plant response rating, Foxtail, Giant [13]	Ragweed plant response rating [14]	Plant response rating, Ragweed [14]	also measured
O=C1NCC(c2cccc(OCC(F)F)c2)C1C(=O)Nc1ccc(F)cc1F (stereo not drawn) [Compound 388]	0	0	0	0	0	30	0	0	50	10	0	0	0	0	70	30	50	80	0	0	Plant response rating, Ducksalad ([1]; 500 g ai/ha): 75; Plant response rating, Rice ([2]; 500 g ai/ha): 0; Plant response rating, Barnyardgrass ([3]; 500 g ai/ha): 0; Plant response rating, Sedge, Umbrella ([4]; 500 g ai/ha): 0; Plant response rating, Kochia [15]: 0; Kochia plant response rating (0 to 100 scale) [15]: 0; Plant response rating, Pigweed [16]: 0; Pigweed plant response rating (0 to 100 scale) [16]: 0; Plant response rating, Ryegrass, Italian [17]: 0; Ryegrass, Italian plant response rating (0 to 100 scale) [17]: 0; Plant response rating, Barnyardgrass [18]: 60; Barnyardgrass plant response rating (0 to 100 scale) [18]: 80; Plant response rating, Foxtail, Giant [19]: 80; Foxtail, Giant plant response rating (0 to 100 scale) [19]: 90; Plant response rating, Ragweed [20]: 0; Ragweed plant response rating (0 to 100 scale) [20]: 0
O=C1NCC(c2cccc(OCC(F)F)c2)C1C(=O)Nc1ccccc1Cl (stereo not drawn) [Compound 390]	0	0	0	0	0	0	0	0	0	0	0	20	0	10	70	50	60	80	0	0	Plant response rating, Ducksalad ([1]; 500 g ai/ha): 65; Plant response rating, Rice ([2]; 500 g ai/ha): 0; Plant response rating, Barnyardgrass ([3]; 500 g ai/ha): 50; Plant response rating, Sedge, Umbrella ([4]; 500 g ai/ha): 0; Plant response rating, Kochia [15]: 0; Kochia plant response rating (0 to 100 scale) [15]: 0; Plant response rating, Pigweed [16]: 0; Pigweed plant response rating (0 to 100 scale) [16]: 0; Plant response rating, Ryegrass, Italian [17]: 0; Ryegrass, Italian plant response rating (0 to 100 scale) [17]: 0; Plant response rating, Barnyardgrass [18]: 60; Barnyardgrass plant response rating (0 to 100 scale) [18]: 80; Plant response rating, Foxtail, Giant [19]: 80; Foxtail, Giant plant response rating (0 to 100 scale) [19]: 90; Plant response rating, Ragweed [20]: 0; Ragweed plant response rating (0 to 100 scale) [20]: 0
O=C1NCC(c2cccc(OC(F)(F)C(F)F)c2)C1C(=O)Nc1ccccc1C(F)F (stereo not drawn) [Compound 391]	0	60	0	50	60	60	40	70	70	50	30	50	30	40	80	60	90	90	20	30	Plant response rating, Ducksalad ([1]; 250 g ai/ha): 100; Plant response rating, Rice ([2]; 250 g ai/ha): 0; Plant response rating, Barnyardgrass ([3]; 250 g ai/ha): 40; Plant response rating, Sedge, Umbrella ([4]; 250 g ai/ha): 0; Plant response rating, Kochia [15]: 30; Kochia plant response rating (0 to 100 scale) [15]: 50; Plant response rating, Pigweed [16]: 70; Pigweed plant response rating (0 to 100 scale) [16]: 70; Plant response rating, Ryegrass, Italian [17]: 20; Ryegrass, Italian plant response rating (0 to 100 scale) [17]: 50; Plant response rating, Barnyardgrass [18]: 80; Barnyardgrass plant response rating (0 to 100 scale) [18]: 90; Plant response rating, Foxtail, Giant [19]: 90; Foxtail, Giant plant response rating (0 to 100 scale) [19]: 90; Plant response rating, Ragweed [20]: 80; Ragweed plant response rating (0 to 100 scale) [20]: 80
